Where two headings read alike, the source gives them in different places.
Tests used:
[1] = target: T1, Rhodobacter sphaeroides rsLacBP12 variant F191C, SEQ ID NO: 46, Acrylodan conjugate (Cereibacter sphaeroides, UniProt Q3IWV8, F228C); assay type: binding; set-up: key: nb: no binding
T1 construct: Acrylodan on Cys191
Procedure: (§1) 12-, 24-, or 48-point logarithmic titration series were prepared on a Tecan Freedom liquid-handling robot, using an in-house program, ‘TitrationPlate’, that compiles an abstract description of a multi-component titration series into machine instructions for operating the robot. Temperature-dependent fluorescence emission intensities of 20 μL aliquots, each containing 10 μM protein, were measured in 384-well microtiter plates in a LightCycler 480 II (Roche) using excitation and emission wavelengths available for this instrument that most closely matched the optical characteristics of the fluorescent conjugate. Temperatures were advanced in 1K steps. At each temperature, data was collected at 1-second intervals for 60 seconds at which point the signal had relaxed to a steady value associated with the new temperature. […] The in-house program ‘TitrationMeltPlate’ was used to convert these observations into time-independent datasets that record fluorescence as a function of temperature for each well and associate wells with their concentration of titrant and additive. Management tools were developed to maintain a database of titrations and their analyses.
(§2) Ligand- and wavelength-dependent emission intensities were recorded on a Nanodrop3300 (Thermo Scientific) at room temperature. Using the LED closest to the optimal excitation wavelength of the fluorophore (UV, 365 nm; blue, 470 nm; ‘white’, 460-550 nm).
(§3) Monochromatic emission intensities Iλ (these intensities correspond to a bandpass intensity, recorded either with a physical filter in the case of the Roche LightCycler, or by integrating in the interval λ−δ, λ+δ in the case of an emission spectrum), were fit to Iλ=^apoβλ(1−ytrue)+^satβλytrue 1 where ^apoβλ and ^satβλ are the fluorescence baselines associated with the ligand-free and ligand-bound states of the protein, respectively, and ytrue the fractional saturation of the protein (Layton and Hellinga, 2010, Biochemistry, 49, 10831-41). Baseline functions can be constant, linear, or a second-order polynomial.

[2] = target: T2, Thermanaerovibrio acidaminovorans taLacBP14 variant W186C, SEQ ID NO: 48, Acrylodan conjugate (Thermanaerovibrio acidaminovorans, UniProt D1B6P5, C271A/C333A/W212C); assay type: binding; set-up: key: nb: no binding
T2 construct: Acrylodan on Cys186
Procedure: as §1, §2, §3

[3] = target: T3, Pseudomonas stuztzeri psLacBP11 variant W195C, SEQ ID NO: 45, Badan conjugate (Stutzerimonas nitrititolerans, UniProt A0ABX9V4I2, W224C); assay type: binding; set-up: key: nb: no binding
T3 construct: Badan on Cys195
Procedure: as §1, §2, §3

[4] = target: Marinobacter sp. msLacBP6 variant 187C, L70M, SEQ ID NO: 53, Acrylodan conjugate; assay: Fluorescence titration of conjugate (affinity tuning); assay type: binding; settings: λ1 455, λ2 479 nm
[5] = target: T4, Pseudomonas stuztzeri psLacBP11 variant W195C, SEQ ID NO: 45, Acrylodan conjugate (Stutzerimonas nitrititolerans, UniProt A0ABX9V4I2, W224C); assay: Fluorescence titration of conjugate; assay type: binding; settings: λ1 487, λ2 466 nm
T4 construct: Acrylodan on Cys195

[6] = target: T5, Marinobacter adhaerens maLacBP8 variant F189C, SEQ ID NO: 43, Badan conjugate (Marinobacter adhaerens, UniProt E4PNW2, C105A/C90A/F252C); assay: Fluorescence titration of conjugate; assay type: binding
T5 construct: Badan on Cys189

[7] = test system: Anaeromyxobacter dehalogenans adLacBP9, YP_466099.1, SEQ ID NO: 9 (expressed form SEQ ID NO: 23); assay: Lactate binding by thermal stability shift and labeled conjugate; settings: thermostability vs ligand concentration; fluorescence response of labeled conjugate
From the text: (§4) These experiments comprise four successive steps: • 1. Synthetic gene construction. The amino acid sequence of the homology leads are back translated into DNA sequences. These are optimized for directing heterologous cytoplasmic expression of the protein homologues in E. coli, using either the OrfOpt or OrfMorph programs. These programs predict mRNA sequences that direct high-level protein expression in E. coli. The predicted gene sequences are assembled de novo from synthetic oligonucleotides. • 2. Heterologous protein expression of the homologues in E. coli. Plasmids carrying the synthetic expression constructs (see above) were transformed into KRX competent cells (Promega). Protein production was induced in bacterial cultures of these cultures. • 3. Purification of successfully expressed protein using immobilized metal affinity chromatography. • 4.
(§5) The thermal stability of purified LacBP candidate proteins was determined by measuring the temperature-dependence of the fluorescence signal of an extrinsically added dye, SYPRO, using a Roche LightCycler (Layton and Hellinga, 2010, Biochemistry, 49, 10831-41). The total fluorescence intensity, S, is given by S=βFfF+βUfU 11 where fF and fU are the fractions of protein in the folded and unfolded states, respectively, and βF and βUthe fluorescence baselines of these two states. To get the fractions of the two states, we have
(§6) To obtain the temperature dependence of the binding reaction, the Kd values of all the individually determined isotherms were fit the Gibbs-Hemholtz equation (Layton and Hellinga, 2010, Biochemistry, 49, 10831-41): […]

[8] = target: Pseudomonas stuztzeri psLacBP11, YP_006522676.1, SEQ ID NO: 11 (expressed form SEQ ID NO: 25) (Stutzerimonas nitrititolerans, UniProt A0ABX9V4I2); assay: as above; settings: thermostability vs ligand concentration; fluorescence response of labeled conjugate
From the text: as §4, §5, §6

[9] = target: T6, Flexistipes sinusarabici fsLacBP13, YP_004603455.1, SEQ ID NO: 13 (expressed form SEQ ID NO: 27) (Flexistipes sinusarabici, UniProt F8E724); assay: as above; settings: thermostability vs ligand concentration; fluorescence response of labeled conjugate
T6 construct: thermal shift
From the text: as §4, §5, §6

[10] = target: Marinobacter sp. msLacBP6 variant 187C, P150S, SEQ ID NO: 55, Badan conjugate; assay: Fluorescence titration of conjugate (affinity tuning); assay type: binding; settings: read-out: trueKd (lactate); monochromatic, 528 nm
[11] = target: T7, Flexistipes sinusarabici fsLacBP13 variant W188C, SEQ ID NO: 47, Acrylodan conjugate (Flexistipes sinusarabici, UniProt F8E724, W211C); assay: Fluorescence titration of conjugate; assay type: binding
T7 construct: Acrylodan on Cys188

[12] = target: Marinobacter sp. msLacBP6 variant Y187C (187C), SEQ ID NO: 38, Acrylodan conjugate; assay: Fluorescence titration of conjugate; assay type: binding

T1 sequence (Q3IWV8 entry or part of it F228C): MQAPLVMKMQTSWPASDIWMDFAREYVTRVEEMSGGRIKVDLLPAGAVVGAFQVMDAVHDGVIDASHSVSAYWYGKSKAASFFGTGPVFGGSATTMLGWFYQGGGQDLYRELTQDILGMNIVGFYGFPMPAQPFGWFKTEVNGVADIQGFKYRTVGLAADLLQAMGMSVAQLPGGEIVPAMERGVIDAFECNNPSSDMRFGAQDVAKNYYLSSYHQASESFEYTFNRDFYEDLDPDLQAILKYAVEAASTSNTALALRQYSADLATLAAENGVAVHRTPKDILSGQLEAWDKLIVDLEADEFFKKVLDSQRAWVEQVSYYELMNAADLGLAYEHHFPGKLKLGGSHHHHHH
T4 sequence (A0ABX9V4I2 entry or part of it W224C): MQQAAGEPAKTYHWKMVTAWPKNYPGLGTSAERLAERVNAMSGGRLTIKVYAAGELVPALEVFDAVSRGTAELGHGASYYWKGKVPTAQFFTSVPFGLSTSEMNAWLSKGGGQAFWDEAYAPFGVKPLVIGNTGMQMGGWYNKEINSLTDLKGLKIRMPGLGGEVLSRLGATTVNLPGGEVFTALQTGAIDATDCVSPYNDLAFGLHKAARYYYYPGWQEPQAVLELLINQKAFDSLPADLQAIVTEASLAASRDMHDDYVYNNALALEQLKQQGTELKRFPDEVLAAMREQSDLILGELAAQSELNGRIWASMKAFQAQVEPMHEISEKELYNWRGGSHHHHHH
T3 sequence (A0ABX9V4I2 entry or part of it W224C): as above
T2 sequence (D1B6P5 entry or part of it W212C/C271A/C333A): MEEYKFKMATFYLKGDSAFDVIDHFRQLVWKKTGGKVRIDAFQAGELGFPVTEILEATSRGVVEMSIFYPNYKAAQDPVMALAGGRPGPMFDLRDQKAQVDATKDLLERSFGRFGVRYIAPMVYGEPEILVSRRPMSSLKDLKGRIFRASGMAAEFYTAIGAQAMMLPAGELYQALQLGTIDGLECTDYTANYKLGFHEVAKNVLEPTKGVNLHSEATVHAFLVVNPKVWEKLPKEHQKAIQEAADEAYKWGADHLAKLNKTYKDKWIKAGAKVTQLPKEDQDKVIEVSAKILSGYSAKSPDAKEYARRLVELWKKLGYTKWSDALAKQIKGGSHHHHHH
T7 sequence (F8E724 entry or part of it W211C): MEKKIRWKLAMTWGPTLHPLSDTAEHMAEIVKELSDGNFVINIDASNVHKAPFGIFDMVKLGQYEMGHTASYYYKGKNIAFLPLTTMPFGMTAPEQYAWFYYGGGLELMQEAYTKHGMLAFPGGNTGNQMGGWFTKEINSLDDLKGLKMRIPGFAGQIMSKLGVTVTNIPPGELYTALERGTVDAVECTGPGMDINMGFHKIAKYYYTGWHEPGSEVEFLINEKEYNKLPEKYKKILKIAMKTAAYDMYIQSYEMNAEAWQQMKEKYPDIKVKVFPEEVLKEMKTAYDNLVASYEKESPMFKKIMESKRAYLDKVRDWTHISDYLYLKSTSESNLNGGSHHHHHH
T5 sequence (E4PNW2 entry or part of it C90A/C105A/F252C): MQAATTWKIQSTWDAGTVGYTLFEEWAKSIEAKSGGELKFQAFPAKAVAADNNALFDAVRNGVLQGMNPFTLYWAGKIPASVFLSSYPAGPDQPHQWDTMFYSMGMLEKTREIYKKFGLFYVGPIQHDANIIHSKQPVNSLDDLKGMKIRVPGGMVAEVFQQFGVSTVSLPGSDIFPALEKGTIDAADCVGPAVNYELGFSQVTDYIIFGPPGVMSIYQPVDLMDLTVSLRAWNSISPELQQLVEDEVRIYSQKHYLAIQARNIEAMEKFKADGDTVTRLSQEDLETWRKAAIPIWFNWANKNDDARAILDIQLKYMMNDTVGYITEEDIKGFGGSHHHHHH
T6 sequence (F8E724 entry or part of it): as the sequence (F8E724 entry or part of it W211C) above, with C188W counted along it
Chain of Pseudomonas stuztzeri psLacBP11, YP_006522676.1, SEQ ID NO: 11 (expressed form SEQ ID NO: 25) (A0ABX9V4I2 entry or part of it): as the sequence (A0ABX9V4I2 entry or part of it W224C) above, with C195W counted along it

For `C[C@H](O)C(=O)O` [lactate], which “appKd (lactate)” value [1] is on record?
Its value is “nb”.

And the “trueKd (lactate)” value [1]?
Its value is “nb”.

What about the “appKd (lactate)” value [2] of the same molecule?
Its value is “nb”.

What about the “trueKd (lactate)” value [2] of the same molecule?
The value was “nb”.

What about the “appKd (lactate)” value [3] of the same molecule?
Its value is “nb”.

And the “trueKd (lactate)” value [3]?
Its value is “nb”.

And the Kd ([4]; read-out: appKd (lactate))?
The Kd was 1600 µM.

What about the Kd ([4]; read-out: trueKd (lactate)) of the same molecule?
The Kd was 1200 µM.

And the Kd ([5]; read-out: appKd (lactate))?
The Kd was greater than 100000 µM.

What about the Kd ([5]; read-out: trueKd (lactate)) of the same molecule?
The Kd was greater than 100000 µM.

What about the Kd [6] of the same molecule?
The Kd was 600 µM.

What about the “Lactate Binding” value [7] of the same molecule?
The value was “weak^f,g”.

And the “Lactate Binding” value [8]?
The value was “weak^f,g”.

And the “Lactate Binding” value [9]?
Its value is “weak^f,g”.

What about the Kd [10] of the same molecule?
The Kd was 14400 µM.

What about the Kd [11] of the same molecule?
Its Kd is greater than 100000 µM.

What about the Kd ([11]; read-out: trueKd (lactate), λ1 482, λ2 450 nm) of the same molecule?
The Kd was greater than 100000 µM.

And the Kd ([12]; read-out: appKd (lactate), approximate, text statement for Acrylodan and Badan conjugates)?
Its Kd is roughly 400 µM.

What about the Kd ([12]; read-out: appKd (lactate), λ1 452, λ2 482 nm as printed in Table 5) of the same molecule?
The Kd was 400 µM.

And the Kd ([12]; read-out: appKd (lactate), λ1 452, λ2 582 nm (FIG. 5A, Table 7))?
The Kd was 400 µM.

What about the Kd ([12]; read-out: appKd (lactate), λ1 483, λ2 451 nm (Table 6)) of the same molecule?
Its Kd is 230 µM.

And the Kd ([12]; read-out: trueKd (lactate), λ1 452, λ2 482 nm as printed in Table 5)?
Its Kd is 300 µM.

And the Kd ([12]; read-out: trueKd (lactate), λ1 452, λ2 582 nm (FIG. 5A, Table 7))?
The Kd was 300 µM.

What about the Kd ([12]; read-out: trueKd (lactate), λ1 483, λ2 451 nm (Table 6)) of the same molecule?
The Kd was 350 µM.

Source: patent US11099176B2 (priority 2015, dated 2021)
